Where two headings read alike, the source gives them in different places.

These results are taken from US20250127890A1, “COMPOSITIONS AND METHODS FOR TREATING CORONAVIRUS INFECTIOUS DISEASE-19 (COVID-19)” (THE BOARD OF REGENTS OF THE UNIVERSITY OF OKLAHOMA, priority 2021, published 2025).

Series [1] deals with SARS-CoV-2 nucleocapsid and membrane proteins. Briefly: Phosphoproteomic analysis of viral proteins in infected Calu3 cells. The format is cell-based.
For series [2], the system named is SARS-CoV-2. The series is classed as cell-based.
The test system of series [3] is SARS-CoV-2. The format is in vivo, K18-hACE2 mice. As to conditions: 10 mg/kg i.p. daily for 4 days.
The test system of series [4] is SARS-CoV-2. Briefly: Western blot of viral proteins and DCLK1 in SARS-CoV-2-infected Calu3 lung cells. The format is cell-based. (In general: A western blot detects proteins with antibodies after separation by electrophoresis.)
The conditions of series [5]: mice, cited from earlier work.
The test system of series [6] is Omicron B.1.1.529 virus. The series is classed as cell-based, SARS-CoV-2. As to conditions: 5 μM and 10 μM, in comparison to vehicle-treated control.
Series [7] has as its target T1, kinase domain of DCLK1 (Homo sapiens, UniProt O15075).
T1 sequence (O15075 390-647 limits assumed): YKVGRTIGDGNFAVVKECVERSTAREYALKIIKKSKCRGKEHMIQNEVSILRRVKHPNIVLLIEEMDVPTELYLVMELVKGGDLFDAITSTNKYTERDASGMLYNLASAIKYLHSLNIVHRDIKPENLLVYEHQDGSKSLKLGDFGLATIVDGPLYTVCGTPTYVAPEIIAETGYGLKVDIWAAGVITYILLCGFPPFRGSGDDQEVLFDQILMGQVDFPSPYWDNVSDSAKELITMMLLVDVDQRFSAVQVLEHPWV
As to conditions: cited from earlier work.

Series [8] deals with SARS-CoV-2-infected Huh7-RFP-DCLK1 cells with normal human PBMCs. As to the kind of experiment: Multiplex cytokine assay of spent supernatants from infected Huh7-RFP-DCLK1 / PBMC mixed cocultures. The format is cell-based. As to conditions: 5 μM, 48 h. Here is the method: Tissue culture supernatants and sera were analyzed using a custom-made human Magnetic Luminex Assay Kit (LXSAHM-15; R&D Systems) for the following analytes: TNF-α, IFNα, IFNβ, IFNγ, IL-1β, IL-2, IL-4, IL-6, IL-8, IL-10, IL-17, CCL2, M-CSF, GM-CSF, and VEGF-A. Samples were processed in replicates and quantified using the BioPlex 200 System (Bio-Rad). The concentration of each analyte was expressed as pg/mg of total protein. Analyte levels in normal serum or control supernatants were set at 100% when compared to test samples.
To assess the effect of DCLK1 kinase on cytokine production during SARS-CoV-2 infection, we mixed infected Huh7-RFP-DCLK1 cells with normal human PBMCs in the presence of 5 μM DCLK1-IN-1 for 48 h. Spent supernatants were assayed for cytokines/chemokines/growth factors using a multiplex system. As with infected Calu3 cells, DCLK1-IN-1 blocked Spike (FIG. 8A, lane 2, Set 2). […] However, PBMCs were responsive to SARS-CoV-2-infected cells as indicated by increased secretion of TNF-α, IL-1β, IL-6, and IL-10 in spent media compared to uninfected cells (FIG. 8B). DCLK1-IN-1 treatment led to downregulation of cytokines involved in inflammation and viral response (TNF-α, IFNα, IFNγ, and IL-10; FIG. 8C). […] Since CCL2 participates in normal wound healing, an increase in this chemokine may contribute to tissue healing after viral clearance. […]

Series [9] deals with SARS-CoV-2-infected Calu3 cells. The format is cell-based. As to conditions: DCLK1-IN-1 5 μM, tasquinimod 10 μM or both.
Series [10] concerns SARS-CoV-2. As to the kind of experiment: TCID50 titer of infectious SARS-CoV-2 particles in culture supernatants of infected Calu3 cells. The format is cell-based. As to conditions: treated vs untreated.
The subject of series [11] is SARS-CoV-2. The series is classed as cell-based. The source holds these as a separate data set.
Series [12] relates to SARS-CoV-2 infected Calu-3 lung cells. Briefly: Label-free quantitative proteomic analysis of SARS-CoV-2-infected Calu-3 lung cells. The format is cell-based.
Series [13] addresses T2, GM-CSF (Homo sapiens, UniProt P04141).
T2 construct: host or cells: COVID-19 patients (endogenous GM-CSF)
As to conditions: clinical trial; cited from earlier work.

T2 sequence (P04141 18-144): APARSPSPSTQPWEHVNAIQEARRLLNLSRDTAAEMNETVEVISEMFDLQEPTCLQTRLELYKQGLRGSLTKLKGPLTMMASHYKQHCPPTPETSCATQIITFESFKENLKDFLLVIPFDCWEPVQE

For the molecule `COc1cc(N2CCN(C)CC2)ccc1Nc1ncc2c(n1)N(C)c1ccccc1C(=O)N2CC(F)(F)F` [DCLK1-IN-1], the “phosphorylation of five serine residues (S2, S176, S180, S201, and S202) of nucleocapsid protein” value in series [1] (compared with untreated and vehicle-treated infected cells) is listed as “significant decrease”. In addition, in [1] (infected cells, phosphoproteomics), the “phosphorylation of viral membrane protein (M) at S212, S213 and S214” value was “significantly reduced”. For the same molecule, the “effect on Spike” value in series [2] is recorded as “blocked Spike”. Moreover, in [3], the “Dclk1 and S100A9 in lung (confocal microscopy)” value is given as “low expression”; the “expression of Spike and nucleocapsid proteins in lung (Western blot)” value is “reduced or absent”; the “staining for Spike in lung (confocal microscopy)” value was “rare or weak”. The “lung histopathological features (H&E)” value in series [3] (lungs collected on day 5) is recorded as “significantly improved”. For the same molecule, in series [4] (5 μM, infected Calu3, Western blot), the “loss of intracellular viral proteins (nucleocapsid and Spike)” value was approximately 65%. Moreover, in series [4] (10 μM, infected Calu3, Western blot), the “loss of intracellular viral proteins (nucleocapsid and Spike)” value is given as approximately 95%. The DCLK1 protein levels result in [4] (infected Calu3, Western blot) was “not significantly affected”. In addition, the “reduction in intracellular viral proteins (nucleocapsid and Spike)” value in [4] (infected Calu3, Western blot, compared to untreated control) is given as “strong dose-response reduction”. In addition, the “adverse effects / body weight at MTD” value in [5] (100 mg/kg) is on record as “no adverse effects or loss of body weight”. In [5], the half-life (usually the time needed for the level to fall by half in the phase considered) was 2.09 h and the “maximum tolerated dose (MTD)” value is reported as 100 mg/kg. The “inhibition of Omicron virus production” value in series [6] is 80%-90%. The dissociation constant (Kd) – broadly, the concentration at which binding is half-saturated – in series [7] (binds the kinase domain of DCLK1) is 109 nM. In addition, in series [8], the “CCL2 (MCP-1)” value is reported as “increased expression”; the “cytokines involved in inflammation and viral response (TNF-α, IFNα, IFNγ, and IL-10)” value is on record as “downregulation”. For the same molecule, the “active forms of caspase 1 and IL-1β” value in series [9] is listed as “downregulated”. For the same molecule, in series [10] (5 μM), the “decrease in infectivity (TCID50)” value came out at 4 fold. For the same molecule, the “decrease in infectivity (TCID50)” value in [10] (10 μM) worked out at 10 fold. Moreover, the Spike by immunofluorescence result in series [11] is on record as “downregulation of Spike”. Besides, in series [12] (infected Calu3, proteomics), the nucleocapsid protein abundance entry is reported as “not decreased”; the “viral structural proteins (membrane and Spike) and accessory proteins (ORF7a, ORF8, and ORF9b)” value is given as “significantly downregulated”. Moreover, the “8 host proteins upregulated by SARS-CoV-2 (GSPT2, LGALS1, ENO2, H3C15, LXN, SAMD4B, SPTA1 and WDR75)” value in series [12] (infected Calu3, proteomics, GSPT2, SAMD4B, WDR75 validated by Western blot) was “normalized”. Further, the “21 cellular proteins downregulated by SARS-CoV-2 infection” value in series [12] (several of these proteins, data not shown) is listed as “restored to normal”.
On to `COc1cc(N2CCN(C)CC2)ccc1Nc1ncc2c(n1)N(C)c1ccc(C)cc1C(=O)N2CC(F)(F)F` [DCLK1-NEG], for which, in series [4], the “effect on Spike” value is given as “did not reduce Spike”. Besides, in series [7] (structural analog used as negative control), the binding affinity entry is recorded as “low binding affinity”.
For the molecule `COc1cccc2c1c(O)c(C(=O)N(C)c1ccc(C(F)(F)F)cc1)c(=O)n2C` [tasquinimod], the “active forms of caspase 1 and IL-1β” value in [9] is on record as “downregulated”.

B1: lenzilumab: a GM-CSF inhibitor (antibody, chains of the INN, looked up, V domains shown)
VH: QVQLVQSGAEVKKPGASVKVSCKASGYSFTNYYIHWVRQAPGQRLEWMGWINAGNGNTKYSQKFQGRVTITRDTSASTAYMELSSLRSEDTAVYYCVRRQRFPYYFDYWGQGTLVTVSS
VL: EIVLTQSPATLSVSPGERATLSCRASQSVGTNVAWYQQKPGQAPRVLIYSTSSRATGITDRFSGSGSGTDFTLTISRLEPEDFAVYYCQQFNKSPLTFGGGTKVEIK
With B1, in [13], the “survival of COVID-19 patients” value is given as “significantly improved”.
